Here are results for one molecule from paper PMC3431801 (2012).

Common to all, as to format: biochemical
In one assay the test system is PDE1. In words: recombinant PDE activity assay with [3H]cAMP, calmodulin and Ca2+.
A further assay concerns the target PDE4D (PDE4) (Homo sapiens, UniProt Q08499). In words: recombinant PDE activity assay with [3H]cAMP.
For the next assay, the system named is PDE3. Description: recombinant PDE activity assay with [3H]cAMP.

Chain of PDE4D (PDE4) (Q08499 whole entry): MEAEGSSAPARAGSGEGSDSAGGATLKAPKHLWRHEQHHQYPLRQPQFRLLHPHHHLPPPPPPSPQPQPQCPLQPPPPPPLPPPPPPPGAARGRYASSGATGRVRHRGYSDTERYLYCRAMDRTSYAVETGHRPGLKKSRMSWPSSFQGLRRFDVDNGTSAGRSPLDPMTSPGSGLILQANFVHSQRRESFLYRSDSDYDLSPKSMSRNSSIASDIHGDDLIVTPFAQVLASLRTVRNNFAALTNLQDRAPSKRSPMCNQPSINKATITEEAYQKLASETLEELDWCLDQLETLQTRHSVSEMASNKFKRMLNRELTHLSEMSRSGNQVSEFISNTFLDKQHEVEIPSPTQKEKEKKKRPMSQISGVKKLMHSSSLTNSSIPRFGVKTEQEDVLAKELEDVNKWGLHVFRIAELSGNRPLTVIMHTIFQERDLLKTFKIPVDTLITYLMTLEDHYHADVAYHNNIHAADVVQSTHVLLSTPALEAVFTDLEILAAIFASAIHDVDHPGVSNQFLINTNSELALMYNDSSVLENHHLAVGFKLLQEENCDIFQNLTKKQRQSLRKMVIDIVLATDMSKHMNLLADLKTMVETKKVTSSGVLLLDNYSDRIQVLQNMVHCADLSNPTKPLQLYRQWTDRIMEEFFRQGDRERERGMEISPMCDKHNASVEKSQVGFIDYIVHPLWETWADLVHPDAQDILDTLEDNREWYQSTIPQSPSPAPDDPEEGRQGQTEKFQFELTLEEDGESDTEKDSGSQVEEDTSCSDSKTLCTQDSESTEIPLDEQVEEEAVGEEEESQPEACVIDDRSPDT

By IC50 is commonly meant the concentration at which inhibition is half-maximal. On to `Oc1ccc(/C=C/c2cc(O)cc(O)c2)cc1` [resveratrol], for which the IC50 in the assay on PDE1 was approximately 6 µM; at PDE4D (PDE4) it was approximately 14 µM; with PDE3 it was approximately 10 µM.
